# Where “and” joins values, the source holds several entries; their conditions need not be identical. Equal values may be shown once.
# Conditions: [M+H]+; instrument: TW; calibrated with polyalanine
row,collision cross section (N2) [Å²],Compound
1,145,N[C@@H](CSSC[C@H](N)C(=O)O)C(=O)O [Cystine]
2,160,Nc1nc(=O)c2ncn([C@@H]3O[C@H](CO)[C@@H](O)[C@H]3O)c2[nH]1 [Guanosine]
3,196,Nc1nc(=O)c2ncn([C@@H]3O[C@H](COP(=O)(O)OP(=O)(O)OP(=O)(O)O)[C@@H](O)[C@H]3O)c2[nH]1 [GTP]
4,124,O=c1[nH]c(=O)c2[nH]cnc2[nH]1 [Xanthine]
5,164,Nc1ncnc2c1ncn2[C@H]1C[C@H](O)[C@@H](COP(=O)(O)O)O1 [dAMP]
6,123,N[C@@H](CCC(=O)O)C(=O)O [Glutamic acid]
7,113,N[C@@H](CS)C(=O)O [Cysteine]
8,124,N[C@@H](CCS)C(=O)O [Homocysteine]
9,217,CCCCCCCCCCCCCCCC(=O)OC(CC(=O)[O-])C[N+](C)(C)C (configuration not stated) [palmitoylcarnitine]
10,142,CC(=O)O[C@H](CC(=O)[O-])C[N+](C)(C)C [Acetylcarnitine]
11,152,NC(=O)c1ncn([C@@H]2O[C@H](CO)[C@@H](O)[C@H]2O)c1N [Acadesine]
12,118,NC(=O)c1cccnc1 [Niacinamide]
13,181,Nc1ncnc2c1ncn2[C@@H]1O[C@H](COP(=O)(O)OP(=O)(O)O)[C@@H](O)[C@H]1O [ADP]
14,163,Nc1ccn([C@@H]2O[C@H](COP(=O)(O)O)[C@@H](O)[C@H]2O)c(=O)n1 [CMP]
15,152,O=c1ccn([C@@H]2O[C@H](CO)[C@@H](O)[C@H]2O)c(=O)[nH]1 [Uridine]
16,151,Nc1ncnc2c1ncn2[C@@H]1O[C@H](CO)[C@@H](O)[C@H]1O [Adenosine]
17,129,Cn1cnc(C[C@H](N)C(=O)O)c1 [1-Methylhistidine]
18,148,Nc1ccn([C@@H]2O[C@H](CO)[C@@H](O)[C@H]2O)c(=O)n1 [Cytidine]
19,153,O=c1nc[nH]c2c1ncn2[C@@H]1O[C@H](CO)[C@@H](O)[C@H]1O [Inosine]

# Continued, compound first:
row,Compound,collision cross section (N2) [Å²]
1,N[C@@H](CCC(=O)N[C@@H](CSSC[C@H](NC(=O)CC[C@H](N)C(=O)O)C(=O)NCC(=O)O)C(=O)NCC(=O)O)C(=O)O [glutathione disulfide],227
2,N[C@@H](Cc1cnc[nH]1)C(=O)O [Histidine],127
3,CN(C)CC(=O)O [Dimethylglycine],116
4,Nc1ncnc2nc[nH]c12 [Adenine],119
5,O=C(O)[C@@H]1C[C@@H](O)CN1 [Hydroxyproline],122
6,NC(=O)C[C@H](N)C(=O)O [Asparagine],118
7,C[C@@H](O)[C@H](N)C(=O)O [Threonine],122
8,O=C(O)[C@@H]1CCCN1 [Proline],118
9,CC(C)C[C@H](N)C(=O)O [Leucine],128
10,O=c1nc[nH]c2nc[nH]c12 [Hypoxanthine],120
11,NC(=O)CC[C@H](N)C(=O)O [Glutamine],124

# Same assay, conditions: [M+Na]+; instrument: TW; calibrated with polyalanine
row,collision cross section (N2) [Å²],Compound
1,159,O=C(O)[C@H](O)[C@@H](O)[C@H](O)[C@H](O)COP(=O)(O)O [6-Phosphogluconate]
2,134,O=C(O)[C@H](O)COP(=O)(O)O [3-Phosphoglyceric acid]
3,128,C[C@@](O)(CCO)CC(=O)O [Mevalonic acid]

# The remaining lines, values behind:
row,Compound,collision cross section (N2) [Å²]
1,Nc1ccn([C@H]2C[C@H](O)[C@@H](COP(=O)(O)O)O2)c(=O)n1 [dCMP],161
2,Nc1nc(=O)c2nc(CNc3ccc(C(=O)N[C@@H](CCC(=O)O)C(=O)O)cc3)cnc2[nH]1 [Folic acid],202
3,OC[C@@H](O)[C@@H](O)[C@H](O)[C@H](O)CO [Mannitol],137
4,OC[C@H]1OC(O)[C@@H](O)[C@@H](O)[C@@H]1O (some centres not stated) [Mannose],138
5,C=C(OP(=O)(O)O)C(=O)O [Phosphoenolpyruvate],131

# Same assay, conditions: [M]+; instrument: TW; calibrated with polyalanine
row,collision cross section (N2) [Å²],Compound
1,159,Cc1ncc(C[n+]2csc(CCO)c2C)c(N)n1 [thiamine]

# Conditions: [M+Li]+; instrument: DT; stepped-field
row,collision cross section (N2) [Å²],Compound
1,144.5,OC[C@@H](O)[C@@H](O)[C@H](O)[C@H](O)CO [Mannitol]

# Same assay, conditions: [M+Na]+; instrument: DT; stepped-field
row,collision cross section (N2) [Å²],Compound
1,140.6,OC[C@@H](O)[C@@H](O)[C@H](O)[C@H](O)CO [Mannitol]

# Conditions: [M+H]+; instrument: DT; stepped-field
row,collision cross section (N2),Compound
1,306.1 Å² and 306 Å²,CCCC/C=C\CCCCCCCC(=O)OC[C@H](COP(=O)([O-])OCC[N+](C)(C)C)OC(=O)CCCCCCCCCCCCCCCCCCCCC [PC(18:0/18:1)]
2,295.3 Å² and 295.1 Å²,CCCCC/C=C\C/C=C\CCCCCCCCCC(=O)O[C@H](COC(=O)CCCCCCCCCCCCC)COP(=O)([O-])OCC[N+](C)(C)C [PC(16:1/18:1)]
3,291.4 Å² and 299.1 Å²,CCCCCCCCCC/C=C\CCCCCCCCCC(=O)O[C@H](COC(=O)CCCCCCCCCCC)COP(=O)([O-])OCC[N+](C)(C)C [PC(16:0/18:1)]

# Same assay, conditions: [M-H]-; instrument: DT; stepped-field
row,collision cross section (N2),Compound
1,276.7 Å² and 277.1 Å² and 277 Å²,CCCCCCCCCC/C=C\CCCCCCCCCC(=O)O[C@H](COC(=O)CCCCCCCCCCC)COP(=O)(O)OC[C@@H](O)CO [PG(16:0/18:1)]
2,226.1 Å²,CCCCCC/C=C\CCCCCCCC(=O)OC[C@@H](O)COP(=O)(O)O[C@H]1C(O)C(O)C(O)[C@@H](O)C1O (some centres not stated) [LPI(16:1)]
3,194.5 Å²,CCCCCCCCCCCCCCCC(=O)O[C@H](CO)COP(=O)(O)O [LPA(16:0)]
